Like-named read-outs stand apart in the source and are kept apart here.
Columns and labels:
PC12 cells = details: Kuai et al. 2011; cited from earlier work
[1] = target: T1, AAK1 (full-length human protein) (Homo sapiens, UniProt Q2M2I8); assay: P81 filter plate assay; type: biochemical; details: 0.2 nM 2x AAK1, Mu2 substrate, 33P-ATP; numeric bounds
T1 construct: NP_055726.2
Method: Compounds were serially diluted into a Labcyte LDV plate (Labcyte, cat# LP-0200) using a Mutiprobe (PerkinElmer) and Biomek FX (Beckman Coulter) so that the highest compound concentration was at 96 μM. Compounds were then pinged (75 nL per well) into a Greiner 384-well reaction plate (Greiner, #781076) using an ECHO 550 Liquid Handler (Labcyte). A total of 12 μl reaction buffer (IMAP buffer containing Tween and DTT, from Molecular Devices) was then added to each well of columns 1 and 13 for the negative controls and 12 μl of 2×AAK1 (0.2 nM full-length human protein, NCBI accession no. NP_055726.2) was added to the remaining wells. Enzyme was then pre-incubated with compound for 10 minutes at RT. Reactions were initiated upon Minitrak (PerkinElmer) addition of 12 μl substrate mix containing 2×Mu2 (0.2 μM, full length human protein), 2× cold ATP (2 μM), and 1.3 μCi of hot ^33P-ATP. Reactions proceeded for one hour at RT. Meanwhile, Millipore 384-well P81 filter plates (Millipore, catalog # MZPHN0W10) were placed on a plate washer (Zoom ZW, from Titertek) and pre-wet with 50 μl […] phosphoric acid. Kinase reactions were then stopped upon addition of 24 μl of 2% phosphoric acid to each well and the Minitrak was then used to transfer 40 μl from each well into the pre-wet Millipore 384-well P81 filter plates. Reaction mixtures were incubated for 10 minutes at room temperature in the P81 plates, followed by washing five times with 100 μl/well of 1% phosphoric acid using the Zoom filter washer. The bottom of each filter plate was sealed followed by addition of 20 μl Microscint 40 to each well, sealing the top of the plates with Flashplate cover, and then waiting one hour until reading on the TopCount (PerkinElmer).

AAK1 = target: T2, AAK1 (Homo sapiens, UniProt Q2M2I8); assay: HEK281 cell-based assay (phospho-mu2 Western blot in transfected HEK293F cells); details: HEK293F cells transfected with human AAK1 and AP2M1, 3 hours, read-out: CBA IC50
T2 construct: expressed in transfected cells; host or cells: HEK293F
Method: HEK293F cells were cultured in media containing DMEM (Gibco, cat. #11965), 10% FBS (SAFC Biosciences, cat. #12103C), 1×GPS (glutamine, penicillin and streptomycin). On day one, cells were plated on a 10 cm dish so that they are ˜80% confluent at time of transfection. Roughly 12 million cells were in a 10 cm dish at time of transfection. On day two, each dish was transfected with 48 ug DNA and 144 ul Lipofectamine 2000 (Invitrogen, cat.#11668-019). The DNA was comprised of a mixture (per 10 cm dish) containing 3 ug AAK1/HA/pIRES (full length human, NCBI accession no. NP_055726.2), 45 μg Flag/AP2MI/pcDNA (full length human), and 1.5 ml OPTI-MEM. The Lipofectamine 2000 is made up of a mixture (per 10 cm dish) containing 144 μl Lipofectamine 2000 and 1.5 ml OPTI-MEM. Each mixture was transferred to individual 15 ml tubes and incubated at room temperature for 5 minutes, and then the two mixes were combined and incubated at room temperature for 20 minutes. Growth media was then aspirated from each 10 cm plate and replaced with 10 ml of DMEM+10% FBS (no GPS). Finally, 3 ml DNA/Lipofectamine mix was added to each 10 cm dish and mix gently followed by incubate of plate overnight at 37° C. and 5% CO2.
On day three, compounds were diluted in 100% DMSO at 1000× final concentration, followed by 3-fold serial dilutions for a total of 5 concentrations tested. Four compounds were tested per 10 cm dish. One ul of each compound dilution was then pipetted into a deep-well, 96-well plate, followed by addition of 500 μl DMEM+0.5% FBS into each well for a 2× final concentration of each compound. Cells were resuspended in a 10 cm dish by simple pipetting (HEK293 cells come off the plate that easy at this point) and then transferred to a 50 ml conical tube and pelleted by centrifugation at 1000 rpm for 5 min. Cell pellets were then resuspended in 2.75 ml DMEM+0.5% FBS per 10 cm dish and 100 μl of cell suspension transferred into each well of 96-well TC plate. Finally, 100 μl of 2× compound diluted in DMEM+0.5% FBS was then added into wells containing cell suspension for a 1× final concentration. Plates were then incubated at 37° C. and 5% CO2 for 3 hours followed by transferring of cell suspensions from each well into 12-tube PCR strips. The PCR strips were spun in a tip rack at 1000 rpm for 5 minutes to pellet cells and media was then removed by pipetting without disturbing the cell pellet.
To prepare for Western Blot analysis, cell pellets were resuspend in 40 ul 1×LDS-PAGE sample buffer (Invitrogen, cat.# NP0008)+2× Halt phophatase and protease inhibitor cocktail (Thermo Scientific, cat.#1861284), followed by sonicating each with microtip sonicator set at 5 for 8-10 seconds. Five ul of 10× NuPage Sample Reducing Agent (with […]) was to each sample followed by heat denaturing at 70 C for 10 min on PCR machine. A total of 10 μl per sample was loaded into each lane of a 4-20% Tris-Glycine Criterion 26-well gel (Biorad, cat.#345-0034) for the phospho-mu2 blot and 10 μl per lane in a 4-12% Bis-Tris (+MES buffer) NuPAGE 26-well gel (Invitrogen, cat.# WG1403BX10) for the mu2 blot. For controls, 2 ng of phospho-mu2 or 20 ng mu2/Flag proteins were loaded in the last well of each gel. After SDS-PAGE, samples on each gel were transferred to PVDF membrane using an iBlot and membranes were blocked for one hour in TBST+5% milk, followed by wash 3× for 5-10 min with TBST. Criterion gels were probed with rabbit anti-phospho-mu2 (1:5000; a rabbit polyclonal antibody produced by New England Peptide and affinity purified at Lexicon) in TBST+5% BSA, whereas, NuPAGE gels were probed with mouse anti-Flag (1:500; Sigma, cat.# F1804) in TBST+5% milk, and these primary antibodies were incubated overnight at 4° C. on a rocker. […]

T2 sequence (Q2M2I8 1-863 isoform Q2M2I8-2): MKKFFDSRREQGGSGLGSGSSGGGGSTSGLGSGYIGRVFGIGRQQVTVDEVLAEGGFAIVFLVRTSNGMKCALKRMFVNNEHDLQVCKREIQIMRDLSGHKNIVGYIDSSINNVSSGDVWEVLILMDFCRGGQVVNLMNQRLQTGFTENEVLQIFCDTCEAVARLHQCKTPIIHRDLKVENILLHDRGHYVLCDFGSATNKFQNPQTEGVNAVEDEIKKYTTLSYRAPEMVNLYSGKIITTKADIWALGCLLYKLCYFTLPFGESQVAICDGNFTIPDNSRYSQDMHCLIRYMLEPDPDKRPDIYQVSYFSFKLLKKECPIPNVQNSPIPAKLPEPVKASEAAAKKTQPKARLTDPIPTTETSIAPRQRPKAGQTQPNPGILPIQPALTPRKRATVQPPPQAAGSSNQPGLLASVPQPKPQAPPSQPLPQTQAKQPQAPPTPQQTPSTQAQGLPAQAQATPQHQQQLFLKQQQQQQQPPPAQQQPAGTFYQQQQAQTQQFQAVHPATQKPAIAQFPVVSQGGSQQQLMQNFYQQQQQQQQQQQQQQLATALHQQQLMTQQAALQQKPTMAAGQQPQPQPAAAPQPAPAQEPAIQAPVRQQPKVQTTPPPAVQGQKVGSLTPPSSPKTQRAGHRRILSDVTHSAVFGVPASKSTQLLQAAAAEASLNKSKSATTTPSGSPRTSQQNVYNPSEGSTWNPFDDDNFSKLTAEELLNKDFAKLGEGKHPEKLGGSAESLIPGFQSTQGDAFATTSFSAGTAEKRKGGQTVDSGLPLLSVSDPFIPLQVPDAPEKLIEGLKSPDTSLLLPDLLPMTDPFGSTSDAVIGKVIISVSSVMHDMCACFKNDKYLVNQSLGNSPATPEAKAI
T1 sequence (Q2M2I8 1-863 isoform Q2M2I8-2): as above

Structure (SMILES) | Effect on Neuregulin-1 induced neurite outgrowth (PC12 cells) | IC50 [1] | IC50 (AAK1; class symbols) | IC50 (AAK1; numeric bounds)
COC(=O)[C@@]1(O)C[C@H]2O[C@]1(C)n1c3ccccc3c3c4c(c5c6ccccc6n2c5c31)C(=O)NC4 [K252a] | potentiation of Neuregulin-1 induced neurite outgrowth |  |  | 
COc1ncccc1-c1cnn2ccc(C3CCN(C(=O)OC(C)C)CC3)nc12 [isopropyl 4-(3-(2-methoxypyridin-3-yl)pyrazolo[1,5-a]pyrimidin-5-yl)piperidine-1-carboxylate] |  | > 300 nM | ≤ 10 nM | 
CC(C)OC(=O)N(C)CCCc1ccn2nccc2n1 [isopropyl methyl(3-(pyrazolo[1,5-a]pyrimidin-5-yl)propyl)carbamate] |  | > 100 nM |  | > 300 nM

Reference: patent US9862724B2, “Pyrazolo[1,5-a]pyrimidine-based compounds, compositions comprising them, and methods of their use” (LEXICON PHARMACEUTICALS, INC., priority 2013, dated 2018)
